Here are results for 1 molecule from US8329696B2, “Solid state forms of sitagliptin salts” (Teva Pharmaceuticals Industries Ltd., priority 2009, dated 2012).

Each structure is given as a SMILES string.

A short description of this data set: Retest of solid form by PXRD after storage. The class given is physicochemical. As to conditions: after 1 month storage. Here is the method: Unless recited otherwise, X-Ray powder diffraction data was obtained by using methods known in the art using a SCINTAG powder X-Ray diffractometer model X'TRA equipped with a solid-state detector. Copper radiation of 1.5418 Å was used. A round aluminum sample holder with zero background was used. The scanning parameters included: range: 2-40 degrees two-theta; scan mode: continuous scan; step size: 0.05 deg.; and a rate of 3 deg/min.
The product was isolated by vacuum filtration and dried at 40° C. for 16 hours to obtain STG lactate crystalline form L3.

For the molecule `CC(O)C(=O)O.N[C@@H](CC(=O)N1CCn2c(nnc2C(F)(F)F)C1)Cc1cc(F)c(F)cc1F` [Form L3, Sitagliptin lactate], the “Polymorphic form found by PXRD after storage” value is listed as “transform to form L1”.
